pIC50: −log10 of the molar value. Structures can show the parent of a compound that is named as a salt.
The compounds below were run against IRAK4 (Homo sapiens (Human), UniProt Q9NWZ3) (assay: IRAK4 kinase activity, IMAP fluorescence polarization assay). Conditions: 100 μM ATP, 0.5 nM GST tagged IRAK4; read-out: IRAK4 IC50.
Sequence of IRAK4 (Q9NWZ3 whole entry): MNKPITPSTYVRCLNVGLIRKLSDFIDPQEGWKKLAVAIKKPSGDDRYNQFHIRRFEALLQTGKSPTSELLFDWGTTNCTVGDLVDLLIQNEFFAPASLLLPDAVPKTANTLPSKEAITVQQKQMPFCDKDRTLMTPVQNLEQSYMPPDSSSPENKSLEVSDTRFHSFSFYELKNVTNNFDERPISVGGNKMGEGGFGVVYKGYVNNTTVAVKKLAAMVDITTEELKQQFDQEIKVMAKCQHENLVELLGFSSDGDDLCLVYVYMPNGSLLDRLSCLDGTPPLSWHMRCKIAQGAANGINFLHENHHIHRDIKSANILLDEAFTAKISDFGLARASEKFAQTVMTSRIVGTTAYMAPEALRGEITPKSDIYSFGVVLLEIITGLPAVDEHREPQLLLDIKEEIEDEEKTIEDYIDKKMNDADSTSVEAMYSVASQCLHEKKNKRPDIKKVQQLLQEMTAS
Assay type: biochemical
Outline: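 Fluorescence polarization (IMAP nanoparticle binding of phosphopeptide) reports activity after a 30 min, 25 °C reaction. Conditions: 100 μM ATP, 0.5 nM GST-IRAK4, 100 nM fluorescent peptide, 10 mM Tris pH 7.2, 1 mM MgCl2, 1 mM DTT, 0.01% Tween 20.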
In the case of CC(C)[C@H]1C[C@@H](Nc2nc(N3CCC(c4cncnc4)CC3)[nH]c(=O)c2-c2nc3ccccc3s2)[C@H](O)[C@@H]1O [Example 44, 5-(Benzo[d]thiazol-2-yl)-6-((1R,2S,3R,4R)-2,3-dihydroxy-4-isopropylcyclopentylamino)-2-(4-(pyrimidin-5-yl)piperidin-1-yl)pyrimidin-4(3H)-one.HCl], the pIC50 was 7.64. In the case of O=c1[nH]c(N2CCOCC2)nc(N[C@H]2CNC[C@H](O)C2)c1-c1nc2ccccc2s1 [Example 105, 5-(benzo[d]thiazol-2-yl)-6-(((3R,5R)-5-hydroxypiperidin-3-yl)amino)-2-morpholinopyrimidin-4(3H)-one.HCl], the pIC50 was 7.07. With CN1CCN(c2nc(N[C@@H]3CCCNC3)c(-c3nc4c(C5CC5)nccc4s3)c(=O)[nH]2)CC1 [Example 120, (R)-5-(4-cyclopropylthiazolo[4,5-c]pyridin-2-yl)-2-(4-methylpiperazin-1-yl)-6-(piperidin-3-ylamino)pyrimidin-4(3H)-one.HCl] the pIC50 was 7.52. In the case of C[C@@]1(O)[C@H](O)[C@@H](CO)C[C@H]1Nc1nc(NC2CCC2)[nH]c(=O)c1-c1nc2ccccc2s1 [Example 41, 5-(Benzo[d]thiazol-2-yl)-2-(cyclobutylamino)-6-((1R,2S,3R,4R)-2,3-dihydroxy-4-(hydroxymethyl)-2-methylcyclopentylamino)pyrimidin-4(3H)-one.HCl], the pIC50 was 6.34. Work on CS(=O)(=O)N1CCN(c2nc(N[C@@H]3C[C@H](CO)[C@@H](O)[C@H]3O)c(-c3nc4ccccc4s3)c(=O)[nH]2)CC1 [Example 12, 5-(Benzo[d]thiazol-2-yl)-6-((1R,2S,3R,4R)-2,3-dihydroxy-4-(hydroxymethyl)cyclopentylamino)-2-(4-(methylsulfonyl)piperazin-1-yl)pyrimidin-4(3H)-one.HCl] yielded a pIC50 of 7.60. O=c1[nH]c(N2CCOCC2)nc(N[C@@H]2CCCNC2)c1-c1nc(-c2ccc(OC(F)(F)F)cc2)cs1 [Example 103, (R)-2-morpholino-6-(piperidin-3-ylamino)-5-(4-(4-(trifluoromethoxy)phenyl)thiazol-2-yl)pyrimidin-4(3H)-one.HCl] showed a pIC50 of 5.65. In the case of C[C@H]1C[C@@H](Nc2nc(N3CCOCC3)[nH]c(=O)c2-c2ccc3ccccc3n2)[C@H](O)[C@@H]1O [Example 46, 6-((1R,2S,3R,4S)-2,3-Dihydroxy-4-methylcyclopentylamino)-2-morpholino-5-(quinolin-2-yl)pyrimidin-4(3H)-one.HCl], the pIC50 was 8.30. In the case of O=c1[nH]c(N2CCOCC2)nc(N[C@@H]2CCCNC2)c1-c1nc2cccc(C3CC3)c2s1 [Example 344, 5-(7-cyclopropyl-1,3-benzothiazol-2-yl)-2-(morpholin-4-yl)-6-[[(3R)-piperidin-3-yl]amino]-3,4-dihydropyrimidin-4-one trifluoroacetic acid], the pIC50 was 5.35. O=c1[nH]c(NC2CCC2)nc(N[C@@H]2CC[C@@H](O)[C@H]2O)c1-c1nc2ccccc2s1 [Example 48, 5-(Benzo[d]thiazol-2-yl)-2-(cyclobutylamino)-6-((1R,2S,3R)-2,3-dihydroxycyclopentylamino)pyrimidin-4(3H)-one.HCl] was tested, and the pIC50 was 5.65.

Same assay, conditions: 100 μM ATP; read-out: IC50
For C[C@H]1C[C@@H](Nc2nc(N3CCOCC3)[nH]c(=O)c2-c2nc3ccccc3s2)CN1 [Example 209, 5-(benzo[d]thiazol-2-yl)-6-(((3R,5S)-5-methylpyrrolidin-3-yl)amino)-2-morpholinopyrimidin-4(3H)-one], the pIC50 was 6.44. In the case of CN1CCCC(Nc2nc(N3CCOCC3)[nH]c(=O)c2-c2nc3ccccc3s2)C1 (stereo not shown) [Example 252, 5-(1,3-benzothiazol-2-yl)-6-[(1-methylpiperidin-3-yl)amino]-2-(morpholin-4-yl)-3,4-dihydro-pyrimidin-4-one], the pIC50 was 5.92. CCN1CCC(c2nc(N[C@@H]3CCCNC3)c(-c3nc4ccccc4s3)c(=O)[nH]2)CC1 [Example 227] gave a pIC50 of 5.85. In the case of O=c1[nH]c(N2CCOCC2)nc(N[C@@H]2CCCNC2)c1-c1cccc(-n2cccc2)n1 [Example 215, (R)-5-(6-(1H-pyrrol-1-yl)pyridin-2-yl)-2-morpholino-6-(piperidin-3-ylamino)pyrimidin-4(3H)-one], the pIC50 was 6.73. O=C(O)C1CN(c2nc(N[C@@H]3CCCNC3)c(-c3nc4ccccc4s3)c(=O)[nH]2)CCO1 (stereo partly drawn) [Example 320, 4-[5-(1,3-benzothiazol-2-yl)-6-oxo-4-[[(3R)-piperidin-3-yl]amino]-1,6-dihydropyrimidin-2-yl]morpholine-2-carboxylic acid] gave a pIC50 of 6.60. O=c1[nH]c(N2CCOCC2)nc(NC2CCCCC2O)c1-c1nc2ccccc2s1 (stereo not shown) [Example 269, 5-(benzo[d]thiazol-2-yl)-6-(2-hydroxycyclohexyl-amino)-2-morpholinopyrimidin-4(3H)-one] gave a pIC50 of 5.25. COc1ccc(N2CCC3(CCN(c4nc(N[C@@H]5CCCNC5)c(-c5nc6ccccc6s5)c(=O)[nH]4)C3)C2)cc1 (stereo partly drawn) [Example 330, 5-(1,3-benzothiazol-2-yl)-2-[7-(4-methoxyphenyl)-2,7-diazaspiro[4.4]nonan-2-yl]-6-[[(3R)-piperidin-3-yl]amino]-3,4-dihydropyrimidin-4-one] was tested, and the pIC50 was 7.68.

Same assay, conditions: 100 μM ATP; read-out: IRAK4 IC50
For COc1ccc(OC)c(N2CCN(c3nc(N[C@@H]4CCCNC4)c(-c4nc5ccccc5s4)c(=O)[nH]3)CC2)c1 [Example 161, (R)-5-(benzo[d]thiazol-2-yl)-2-(4-(2,5-dimethoxyphenyl)piperazin-1-yl)-6-(piperidin-3-ylamino)pyrimidin-4(3H)-one], the pIC50 was 7.85. For COc1ccc(N2CCN(c3nc(N[C@@H]4CCCNC4)c(-c4nc5ccccc5s4)c(=O)[nH]3)CC2)nc1 [Example 141, (R)-5-(benzo[d]thiazol-2-yl)-2-(4-(5-methoxypyridin-2-yl)piperazin-1-yl)-6-(piperidin-3-ylamino)pyrimidin-4(3H)-one], the pIC50 was 8.30. In the case of O=c1[nH]c(N2CCN(c3ccc4c(c3)OCO4)CC2)nc(N[C@@H]2CCCNC2)c1-c1nc2ccccc2s1 [Example 155, (R)-2-(4-(benzo[d][1,3]dioxol-5-yl)piperazin-1-yl)-5-(benzo[d]thiazol-2-yl)-6-(piperidin-3-ylamino)pyrimidin-4(3H)-one], the pIC50 was 7.96. Compound O=c1[nH]c(N2CCOC(C(F)(F)F)C2)nc(N[C@@H]2CCCNC2)c1-c1nc2ccccc2s1 (stereo partly drawn) [Example 130, 5-(benzo[d]thiazol-2-yl)-6-((R)-piperidin-3-ylamino)-2-(2-(trifluoromethyl)morpholino)pyrimidin-4(3H)-one] has a pIC50 of 6.70. O=c1[nH]c(N2CCC[C@H]2CF)nc(N[C@@H]2CCCNC2)c1-c1ccc2ccccc2n1 [Example 183, 2-((S)-2-(fluoromethyl)pyrrolidin-1-yl)-6-((R)-piperidin-3-ylamino)-5-(quinolin-2-yl)pyrimidin-4(3H)-one] gave a pIC50 of 7.07. In the case of O=c1[nH]c(N2CCN(c3ncccn3)CC2)nc(N[C@@H]2CCCNC2)c1-c1nc2ccccc2s1 [Example 136, (R)-5-(benzo[d]thiazol-2-yl)-6-(piperidin-3-ylamino)-2-(4-(pyrimidin-2-yl)piperazin-1-yl)pyrimidin-4(3H)-one], the pIC50 was 8.00. O=c1[nH]c(N2CCN(c3nncs3)CC2)nc(N[C@@H]2CCCNC2)c1-c1nc2ccccc2s1 [Example 163, (R)-2-(4-(1,3,4-thiadiazol-2-yl)piperazin-1-yl)-5-(benzo[d]thiazol-2-yl)-6-(piperidin-3-ylamino)pyrimidin-4(3H)-one] gave a pIC50 of 7.70. In the case of O=c1[nH]c(N2CC3CC2CN3)nc(N[C@@H]2CCCNC2)c1-c1ccc2ccccc2n1 (stereo partly drawn) [Example 194, 2-(2,5-diazabicyclo[2.2.1]heptan-2-yl)-6-((R)-piperidin-3-ylamino)-5-(quinolin-2-yl)pyrimidin-4(3H)-one], the pIC50 was 6.77. Work on CC1(O)CN(c2nc(N[C@@H]3CCCNC3)c(-c3ccc4ccccc4n3)c(=O)[nH]2)C1 [Example 171, (R)-2-(3-hydroxy-3-methylazetidin-1-yl)-6-(piperidin-3-ylamino)-5-(quinolin-2-yl)pyrimidin-4(3H)-one] yielded a pIC50 of 5.50. In the case of O=c1[nH]c(N2CCOCC2)nc(N[C@@H]2CCCNC2)c1-c1nc(-c2cccc(F)c2)cs1 [Example 204], the pIC50 was 7.40. CN1CCC2CCN(c3nc(N[C@@H]4CCCNC4)c(-c4ccc5ccccc5n4)c(=O)[nH]3)C2C1 (stereo partly drawn) [Example 185, 2-(6-methyloctahydro-1H-pyrrolo[2,3-c]pyridin-1-yl)-6-((R)-piperidin-3-ylamino)-5-(quinolin-2-yl)pyrimidin-4(3H)-one] showed a pIC50 of 6.07.

Same assay, conditions: unit inferred; 100 μM ATP; read-out: IRAK4 IC50
O=c1[nH]c(N2CCC(c3ccccn3)CC2)nc(N[C@@H]2C[C@H](CO)[C@@H](O)[C@H]2O)c1-c1nc2ccccc2s1 [Example 78, 5-(benzo[d]thiazol-2-yl)-6-((1R,2S,3R,4R)-2,3-dihydroxy-4-(hydroxymethyl)cyclopentylamino)-2-(4-(pyridin-2-yl)piperidin-1-yl)pyrimidin-4(3H)-one] gave a pIC50 of 7.44. Compound O=c1[nH]c(N2CCC(c3ccccn3)C2)nc(N[C@@H]2C[C@H](CO)[C@@H](O)[C@H]2O)c1-c1nc2ccccc2s1 (stereo partly drawn) [Example 82, 5-(benzo[d]thiazol-2-yl)-6-((1R,2S,3R,4R)-2,3-dihydroxy-4-(hydroxymethyl)cyclopentylamino)-2-(3-(pyridin-2-yl)pyrrolidin-1-yl)pyrimidin-4(3H)-one] has a pIC50 of 6.71. For CC(=O)NCC1CCN(c2nc(N[C@@H]3C[C@H](CO)[C@@H](O)[C@H]3O)c(-c3nc4ccccc4s3)c(=O)[nH]2)CC1 [Example 79, N-((1-(5-(benzo[d]thiazol-2-yl)-4-((1R,2S,3R,4R)-2,3-dihydroxy-4-(hydroxymethyl)cyclopentylamino)-6-oxo-1,6-dihydropyrimidin-2-yl)piperidin-4-yl)methyl)acetamide], the pIC50 was 7.44. In the case of O=C1NC2(CCN(c3nc(N[C@@H]4C[C@H](CO)[C@@H](O)[C@H]4O)c(-c4nc5ccccc5s4)c(=O)[nH]3)CC2)CO1 [Example 81, 8-(5-(benzo[d]thiazol-2-yl)-4-((1R,2S,3R,4R)-2,3-dihydroxy-4-(hydroxymethyl)cyclopentylamino)-6-oxo-1,6-dihydropyrimidin-2-yl)-3-oxa-1,8-diazaspiro[4.5]decan-2-one], the pIC50 was 6.71.

— US9221809B2 (MERCK SHARP & DOHME CORP., priority 2011, dated 2015)
